Data as given in the supplement of paper PMC10307832.

What was measured:
Assay in all cases: relative viability (nuclei count vs DMSO), 5 days (fraction); higher = more cells survive
VX-11e + Vorinostat = compound: CC1=CN=C(N=C1C2=CNC(=C2)C(=O)N[C@H](CO)C3=CC(=CC=C3)Cl)NC4=C(C=C(C=C4)F)Cl [VX-11e] + O=C(CCCCCCC(=O)Nc1ccccc1)NO [Vorinostat] (partner 1 µM)
In short: (§1)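 Lung cancer cell lines in 1536-well plates were dosed by pin tool the day after seeding, either with one drug alone or with a fixed anchor-drug dose plus five library-drug doses (not always all listed) in √10 steps. After 5 days, cells were fixed and their nuclei stained in one step (final 0.05% Triton X-100, 1% formaldehyde, 1 ug/ml Hoechst), then counted on 4× images. Relative viability is the nuclei count in treated wells divided by that in vehicle wells. Values are medians of duplicate plates.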

VX-11e + Dasatinib = compound: CC1=CN=C(N=C1C2=CNC(=C2)C(=O)N[C@H](CO)C3=CC(=CC=C3)Cl)NC4=C(C=C(C=C4)F)Cl [VX-11e] + Cc1nc(Nc2ncc(C(=O)Nc3c(C)cccc3Cl)s2)cc(N2CCN(CCO)CC2)n1 [Dasatinib] (partner 0.075 µM)
In short: as §1

VX-11e + Pemetrexed = compound: CC1=CN=C(N=C1C2=CNC(=C2)C(=O)N[C@H](CO)C3=CC(=CC=C3)Cl)NC4=C(C=C(C=C4)F)Cl [VX-11e] + Nc1nc2[nH]cc(CCc3ccc(C(=O)N[C@@H](CCC(=O)O)C(=O)O)cc3)c2c(=O)[nH]1 [Pemetrexed] (partner 0.2 µM)
In short: as §1

VX-11e + Palbociclib = compound: CC1=CN=C(N=C1C2=CNC(=C2)C(=O)N[C@H](CO)C3=CC(=CC=C3)Cl)NC4=C(C=C(C=C4)F)Cl [VX-11e] + CC(=O)c1c(C)c2cnc(Nc3ccc(N4CCNCC4)cn3)nc2n(C2CCCC2)c1=O [Palbociclib] (partner 0.5 µM)
In short: as §1

Cell Line	relative viability (VX-11e + Vorinostat; first compound 0.04 µM)	relative viability (VX-11e + Vorinostat; first compound 0.1265 µM)	relative viability (VX-11e + Vorinostat; first compound 0.4 µM)	relative viability (VX-11e + Vorinostat; first compound 1.265 µM)	relative viability (VX-11e + Vorinostat; first compound 4 µM)	relative viability (VX-11e + Dasatinib; first compound 0.04 µM)	relative viability (VX-11e + Dasatinib; first compound 0.1265 µM)	relative viability (VX-11e + Dasatinib; first compound 0.4 µM)	relative viability (VX-11e + Dasatinib; first compound 1.265 µM)	relative viability (VX-11e + Dasatinib; first compound 4 µM)	relative viability (VX-11e + Pemetrexed; first compound 0.04 µM)	relative viability (VX-11e + Pemetrexed; first compound 0.1265 µM)	relative viability (VX-11e + Pemetrexed; first compound 0.4 µM)	relative viability (VX-11e + Pemetrexed; first compound 1.265 µM)	relative viability (VX-11e + Pemetrexed; first compound 4 µM)	relative viability (VX-11e + Palbociclib; first compound 0.04 µM)	relative viability (VX-11e + Palbociclib; first compound 0.1265 µM)	relative viability (VX-11e + Palbociclib; first compound 0.4 µM)	relative viability (VX-11e + Palbociclib; first compound 1.265 µM)	relative viability (VX-11e + Palbociclib; first compound 4 µM)
201T	0.975	0.988	0.885	0.65	0.855	0.58	0.536	0.486	0.502	0.495	0.347	0.344	0.317	0.249	0.31	0.206	0.337	0.361	0.353	0.348
A-427	0.868	0.928	1.01	0.89	0.504	0.751	0.574	0.488	0.232	0.114	1.02	0.983	1.1	0.966	0.606	0.553	0.442	0.516	0.496	0.336
ABC-1	0.934		1.22	0.986	1.15	0.72	0.551	0.468	0.561	0.497						0.568		0.655	0.548	0.65
BEN	0.572	0.564	0.55	0.525	0.504		0.277	0.399	0.236	0.252	0.491	0.69	0.875	0.582	0.629	0.46	0.401	0.465	0.47	0.431
CAL-12T	0.634	0.724	0.649	0.84	0.285	0.466	0.34	0.249	0.243	0.111	1.28	1.36	1.19	1.02	0.438	0.391	0.433	0.331	0.141	0.116
COR-L23	0.31	0.436	0.592	0.41	0.262	0.486	0.453	0.442	0.355	0.208	0.236	0.196	0.213	0.217	0.179	0.376	0.274	0.225	0.183	0.123
COR-L 105	0.756	0.857	0.731	0.741	0.418	0.316	0.344	0.33	0.198	0.229	1.11	0.905	0.921	0.93	0.527	0.425	0.414	0.396	0.386	0.363
ChaGo-K-1	0.754	0.699	0.717	0.656	0.636	0.516	0.587	0.584	0.654	0.557	0.268	0.261	0.248	0.25	0.234	0.982	0.821	0.915	0.947	0.845
EKVX	0.751	0.687	0.718	0.728	0.382	0.687	0.482	0.401	0.489	0.247	0.314	0.444	0.33	0.383	0.225	0.397	0.378	0.452	0.368	0.19
EMC-BAC-2	0.404	0.45	1.07	0.511	0.315	0.303	0.291	0.437	0.509	0.407	0.473	0.423	0.631	0.511	0.549	0.563	0.459	0.533	0.553	0.432
EPLC-272H	0.311	0.381	0.477	0.23	0.275	0.328	0.269		0.334	0.2	0.334	0.39	0.408	0.305	0.253	0.339	0.293		0.295	0.235
H3255	0.828	0.765	0.776	0.79	0.708	0.37	0.38	0.538	0.281	0.347	0.478	0.565	0.523	0.513	0.47	0.312	0.305	0.316	0.316	0.327
HARA	0.618	0.455	0.535	0.392	0.257	0.306	0.2	0.273	0.248	0.157	0.253	0.236	0.26	0.186	0.131	0.337	0.237	0.196	0.158	0.178
HCC-15	0.96	0.752		0.534	0.26	0.66	0.52		0.243	0.148	0.227	0.232	0.22	0.197	0.15	0.838	0.627		0.445	0.249
HCC-44	1.15	1.15	1.12	1.03	0.831						0.766	0.614	0.63	0.656	0.793	0.984	0.885	0.96	1.07	1.29
HCC-78	0.479	0.42	0.358	0.482	0.405		0.412	0.411	0.382	0.44	0.938	0.859	0.884	0.858	0.919	0.481	0.359	0.466	0.501	0.431
HCC-366	0.314	0.332		0.105	0.199	0.736	0.612		0.434	0.241	0.246	0.178		0.15	0.138	0.385	0.311		0.314	0.163
HCC-827	0.924	0.846	1.03	0.918	0.761	0.297	0.292	0.257	0.406	0.246	0.254	0.226	0.241	0.271	0.252	0.533	0.46	0.461	0.541	0.301

Cell Line	relative viability (VX-11e + Vorinostat; first compound 0.04 µM)	relative viability (VX-11e + Vorinostat; first compound 0.1265 µM)	relative viability (VX-11e + Vorinostat; first compound 0.4 µM)	relative viability (VX-11e + Vorinostat; first compound 1.265 µM)	relative viability (VX-11e + Vorinostat; first compound 4 µM)	relative viability (VX-11e + Dasatinib; first compound 0.04 µM)	relative viability (VX-11e + Dasatinib; first compound 0.1265 µM)	relative viability (VX-11e + Dasatinib; first compound 0.4 µM)	relative viability (VX-11e + Dasatinib; first compound 1.265 µM)	relative viability (VX-11e + Dasatinib; first compound 4 µM)	relative viability (VX-11e + Pemetrexed; first compound 0.04 µM)	relative viability (VX-11e + Pemetrexed; first compound 0.1265 µM)	relative viability (VX-11e + Pemetrexed; first compound 0.4 µM)	relative viability (VX-11e + Pemetrexed; first compound 1.265 µM)	relative viability (VX-11e + Pemetrexed; first compound 4 µM)	relative viability (VX-11e + Palbociclib; first compound 0.04 µM)	relative viability (VX-11e + Palbociclib; first compound 0.1265 µM)	relative viability (VX-11e + Palbociclib; first compound 0.4 µM)	relative viability (VX-11e + Palbociclib; first compound 1.265 µM)	relative viability (VX-11e + Palbociclib; first compound 4 µM)
HOP-62	0.519	0.59	0.345	0.201	0.158	0.685	0.652	0.663	0.457	0.242	0.348	0.264	0.277	0.192	0.22	0.505	0.451	0.464	0.434	0.348
IA-LM	1.07	0.814	0.941	0.668	0.302															
LC-2-ad	0.84	0.695	0.733	0.456	0.376	0.48	0.402	0.326	0.289	0.324	0.277	0.247	0.285	0.239	0.243	0.48	0.42	0.54	0.46	0.409
LCLC-97TM1	0.765	0.718	0.758		0.149	1	0.728	0.793	0.547	0.301	0.183	0.14	0.243		0.171	0.202	0.176	0.194		0.114
LCLC-103H	0.807	0.68	0.673	0.46	0.66	0.45	0.435	0.545	0.446	0.444	0.442	0.437	0.53	0.417	0.493	0.469	0.435	0.502	0.456	0.448
LK-2	0.223	0.323	0.268	0.297	0.227	0.25	0.344	0.244	0.155	0.257	0.171	0.269	0.145	0.183	0.16	0.557	0.594	0.566	0.399	0.45
LOU-NH91	0.889	0.79		0.626	0.781	0.534	0.514	0.372	0.489	0.471	0.448	0.373		0.367	0.358	0.533	0.509		0.487	0.521
LU99A	0.468	0.469	0.487	0.274	0.226	0.505	0.562	0.261	0.252	0.199	0.184	0.138	0.201	0.182	0.188	0.334	0.373	0.443	0.326	0.228
LXF-289	0.851	0.726		0.668	0.543	0.29	0.199	0.249	0.336	0.172	0.974	0.911		0.803	0.706	0.633	0.61		0.618	0.473
NCI-H23	0.562	0.581	0.174	0.148	0.182	0.552	0.711		0.225	0.221	0.517	0.583	0.214	0.312	0.222	0.453	0.416	0.425	0.382	0.203
NCI-H322M	0.763	0.813	1.13	0.736	0.64	0.224	0.208	0.27	0.252	0.225	0.623	0.658	0.641	0.497	0.594	0.45	0.417	0.539	0.453	0.462
NCI-H358	0.725	0.63	0.513	0.54	0.135	0.17	0.125	0.0855	0.162	0.103	0.188	0.171	0.17	0.171	0.136	0.122	0.139	0.0851	0.148	0.118
NCI-H441	0.835	0.786		0.753	0.569	0.685	0.814		0.502	0.318	0.27	0.253		0.259	0.238	0.175	0.232		0.157	0.165
NCI-H596	0.472	0.635	0.597	0.387	0.354	0.542	0.516	0.466	0.425	0.419	0.457	0.506	0.53	0.449	0.464					
NCI-H727	0.997	1.08	1.28	1.12	0.787	0.355	0.279	0.337	0.415	0.258						0.589	0.358	0.602	0.559	0.412
NCI-H1563						0.417	0.47	0.506	0.411	0.449	0.766	0.798	0.915	0.631	0.655					
NCI-H1648		0.317	0.639	0.31	0.291							0.891	0.866	0.596	0.674		0.305	0.301	0.331	0.314
NCI-H1792						0.894	0.679	0.572	0.729	0.326		0.719		0.343	0.0593	0.684	0.586	0.645	0.541	0.319
